According to patent US12318368B2, “Physics-driven discovery of novel small therapeutic compounds for use as a BCL-2 inhibitor” (BAHCESEHIR UNIVERSITESI, priority 2020, dated 2025):

Tested on: HCT-116 cell lines
Test: MTT cell proliferation assay
Type: cell-based
Method: For cell culture experiments various cancer cell lines, HCT-116 colon cancer, U87-MG glial tumor, MCF7 breast cancer cell lines were used. Cells were seeded with high glucose DMEM medium (Biosera) supplemented with 10% FBS (Gibco) and 1× penicillin/streptomycin (Multicell). Twenty-four hours prior to molecule treatment, 10,000 cells were seeded into each well of 24-well cell culture plates. Molecules were used by preparing 4 mM stock solution in DMSO (Amresco). For molecule treatment, molecule stock solutions were diluted in DMEM with 10% FBS and added onto cells in each corresponding well. Final concentration of vehicle DMSO was 2% at maximum. […] We calculated the number of cells to be seeded to make sure that none of the cells reaches more than 60% confluency during the treatment period, as higher plate confluency levels would slow down cell proliferation independently from the molecule treatment.
Values of half-maximal inhibitory concentration were (IC50) determined by MTT cell proliferation assays. […] 570 nm absorbance values were recorded and IC50 values were calculated by dose response—inhibition curves and nonlinear regression analysis on GraphPad Prism 8 software. […] Following the initial incubation day, molecules were added and after incubation with MTT at 37° C. for 4 hours, formazan was solubilized with DMSO (Sigma-Aldrich, St. Louis, USA) and absorbance was measured at 570 nm. […]

IC50 (Homo sapiens, 72 h, HCT-116 colon cancer cells, MTT, single treatment, three days results, absorbance 570 nm, read-out: IC50 (half-maximal inhibitory concentration)): 25 µM
Structure (SMILES): COCCN1C(=O)/C(=C/c2ccc(OCC(=O)Nc3ccc(C)cc3)cc2)S/C1=N\c1ccccc1 [compound of formula I]
proliferation of the HCT-116 cells versus vehicle group (FIG. 1) (HCT-116 cells, compared with vehicle (max 2% DMSO)): reduced proliferation and apoptotic cell structures
